# From patent US11958831B2, “Pyrazole compounds, pharmaceutical compositions thereof and use thereof” (ARTIVILA (SHENZHEN) INNOVATION CENTER, LTD., priority 2018, dated 2024)
# Tests used:
# IRAK4 kinase = IRAK4 kinase (Homo sapiens (Human), UniProt Q9NWZ3); assay: IRAK4 kinase activity assay (mobility shift, Km ATP); type: biochemical; conditions: Km ATP (15.6 μM ATP), 1 nM IRAK4, 60 min room temperature
# Method: Inhibitory activity (IC50) of the compounds against IRAK4 kinase under Km ATP was detected through mobility spectrum analysis (MSA). IRAK4 kinase was purchased from Carna (Cat. No.: 09-145, batch No.: 14CBS-0020H), and Kinase Substrate 8 was purchased from GL Biochem (Cat. No.: 112396, batch No.: P171207-MJI112396).
# The compounds were prepared with DMSO to 100 times the final reaction concentration and diluted to 10 concentrations in sequence at a 3-fold dilution ratio starting from 1 μM. Then 0.25 μL was transferred to a 384-well plate using Echo550. A 1× kinase buffer (50 mM HEPES, pH=7.5, 0.0015% Brij-35, 10 mM MgCl2, 2 mM DTT) was used to prepare a kinase solution of 2.5 times the final concentration. Then 10 μL of the kinase solution of 2.5 times the final concentration was added to each compound well, shaken and mixed uniformly, and incubated at room temperature for 10 min. A 1× kinase buffer was used to prepare a mixed solution of ATP and substrate Kinase Substrate 8 with a concentration of 25/15 times the final concentration. 15 μL of the mixed solution of ATP and the substrate with a concentration of 25/15 times the final concentration were added to each well (the final concentration of IRAK4 kinase was 1 nM, the final concentration of the substrate was 3 μM, and the final concentration of ATP was 15.6 μM), shaken and mixed uniformly, and reacted at room temperature for 60 min. Finally, 30 μL of stopping solution (100 mM HEPES, pH=7.5, 0.0015% Brij-35, 0.2% Coating Reagent #3, 50 mM EDTA) was added to terminate the reaction. CaliperEZ Reader II was used to read data about conversion rates that was then converted into data about inhibition rates. According to the data about the inhibition rate at each concentration, the half maximal inhibitory concentration (IC50) (Table 1) was calculated by a Logit method.
# [1] = tested on: TNFα secretion in THP-1 cells; assay: Cellular activity assay: LPS-stimulated TNFα secretion in THP-1 cells (ELISA); type: cell-based; conditions: Homo sapiens, LPS 1 μg/mL, 4.5 h, read-out: IC50 inhibiting TNFα secretion in THP-1 cells stimulated by LPS
# Method: Inhibition of IRAK4 by the compounds of the present application was evaluated in THP-1 cells for cellular activity. The stimulus used in this experiment was LPS. LPS is a TLR4 agonist that stimulates the secretion of TNFα through TLR-IRAK4 signaling pathway in the THP-1 cells. Once the signaling pathway is inhibited by IRAK4 inhibitors, the production of TNFα is inhibited. In this experiment, the secretion of TNFα was detected by ELISA.
# 150 μL of RPMI-1640 medium (Gibco, catalog No.: 11875-085) solution containing 10000 THP-1 cells were added to each well of a 96-well plate and then 25 μL of a test compound solution of 8 times the final concentration (starting from […], 3-fold dilution, 8 concentrations, each concentration containing 4% DMSO RPMI-1640 medium) were added, and they were mixed uniformly and incubated at 37° C. for 30 min. 25 μL of RPMI-1640 medium solution containing LPS were added to each well (the final LPS concentration was 1 μg/mL and the final DMSO concentration was 0.5%), mixed uniformaly, and incubated at 37° C. for 4.5 h. The 96-well plate was rotated at 2000 rpm for 5 min, then 50 μL of supernatant was taken, and the TNFα content in the supernatant was determined with a human ELISA kit (Life Technologies, catalog No.: KHC3011). The IC50 (Table 2) of the compound was calculated by XL-Fit.
# Chain of IRAK4 kinase (Q9NWZ3 whole entry): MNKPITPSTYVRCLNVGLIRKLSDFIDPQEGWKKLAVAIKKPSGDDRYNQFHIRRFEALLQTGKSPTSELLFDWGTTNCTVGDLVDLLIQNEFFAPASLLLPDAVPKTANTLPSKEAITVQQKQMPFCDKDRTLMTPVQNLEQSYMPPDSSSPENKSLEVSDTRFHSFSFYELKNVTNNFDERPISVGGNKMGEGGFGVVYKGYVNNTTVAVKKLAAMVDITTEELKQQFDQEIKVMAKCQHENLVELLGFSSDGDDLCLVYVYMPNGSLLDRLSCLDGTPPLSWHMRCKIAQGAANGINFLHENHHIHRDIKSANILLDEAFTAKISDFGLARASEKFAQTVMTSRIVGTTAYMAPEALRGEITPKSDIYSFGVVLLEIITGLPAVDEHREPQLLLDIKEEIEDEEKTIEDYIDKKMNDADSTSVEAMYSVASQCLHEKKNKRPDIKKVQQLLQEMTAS
IC50 (IRAK4 kinase) [nM],IC50 [1] [nM],SMILES
1.2,29,"CC(=O)N1CCC(N2CC(n3cc(NC(=O)c4cccc(-c5cnn(CC(F)F)c5)n4)c(C(F)F)n3)C2)CC1 [Example 1, N-(1-(1-(1-acetylpiperidin-4-yl)azetidin-3-yl)-3-(difluoromethyl)-1H-pyrazol-4-yl)-6-(1-(2,2-difluoroethyl)-1H-pyrazol-4-yl)-2-picolinamide]"
0.99,27,"O=C(Nc1cn(C2CN(C3CCN(C(=O)CO)CC3)C2)nc1C(F)F)c1cccc(-c2cnn(CC(F)F)c2)n1 [Example 2, 6-(1-(2,2-Difluoroethyl)-1H-pyrazol-4-yl)-N-(3-(difluoromethyl)-1-(1-(1-(2-hydroxyacetyl)piperidin-4-yl)azetidin-3-yl)-1H-pyrazol-4-yl)-2-picolinamide]"
0.87,35,"CC(=O)N1CCC(N2CC(n3cc(NC(=O)c4cccc(-c5cnn(CC(F)(F)F)c5)n4)c(C(F)F)n3)C2)CC1 [Example 3, N-(1-(1-(1-acetylpiperidin-4-yl)azetidin-3-yl)-3-(difluoromethyl)-1H-pyrazol-4-yl)-6-(1-(2,2,2-trifluoroethyl)-1H-pyrazol-4-yl)-2-picolinamide]"
0.68,33,"O=C(Nc1cn(C2CN(C3CCN(C(=O)CO)CC3)C2)nc1C(F)F)c1cccc(-c2cnn(CC(F)(F)F)c2)n1 [Example 4, N-(3-(difluoromethyl)-1-(1-(1-(2-hydroxyacetyl)piperidin-4-yl)azetidin-3-yl)-1H-pyrazol-4-yl)-6-(1-(2,2,2-trifluoroethyl)-1H-pyrazol-4-yl)-2-picolinamide]"
0.91,43,"CC(=O)N1CCC(N2CC(n3cc(NC(=O)c4cccc(-c5cnn(C(C)(C)C#N)c5)n4)c(C(F)F)n3)C2)CC1 [Example 12, N-(1-(1-(1-acetylpiperidin-4-yl)azetidin-3-yl)-3-(difluoromethyl)-1H-pyrazol-4-yl)-6-(1-(2-cyanopropan-2-yl)-1H-pyrazol-4-yl)-2-picolinamide]"
0.73,25,"CC(=O)N1CCC(N2CC(n3cc(NC(=O)c4cccc(-c5cnn(C(C)(C)CN)c5)n4)c(C(F)F)n3)C2)CC1 [Example 13, N-(1-(1-(1-acetylpiperidin-4-yl)azetidin-3-yl)-3-(difluoromethyl)-1H-pyrazol-4-yl)-6-(1-(1-amino-2-methylpropan-2-yl)-1H-pyrazol-4-yl)-2-picolinamide]"
0.59,20,"CC(=O)N1CCC(N2CC(n3cc(NC(=O)c4cccc(-c5cc[nH]n5)n4)c(C(F)F)n3)C2)CC1 [Example 24, N-(1-(1-(1-acetylpiperidin-4-yl)azetidin-3-yl)-3-(difluoromethyl)-1H-pyrazol-4-yl)-6-(1H-pyrazole-3-yl)-2-picolinamide]"
0.51,18,"O=C(Nc1cn(C2CN(C3CCN(C(=O)CO)CC3)C2)nc1C(F)F)c1cccc(-c2cc[nH]n2)n1 [Example 27, N-(3-(difluoromethyl)-1-(1-(1-(2-hydroxyacetyl)piperidin-4-yl)azetidin-3-yl)-1H-pyrazol-4-yl)-6-(1H-pyrazol-3-yl)-2-picolinamide]"
0.79,42,"C[C@@H](O)C(=O)N1CCC(N2CC(n3cc(NC(=O)c4cccc(-c5cnn(CC(F)(F)F)c5)n4)c(C(F)F)n3)C2)CC1 [Example 31, (R)—N-(3-(difluoromethyl)-1-(1-(1-(2-hydroxypropionyl)piperidin-4-yl)azetidin-3-yl)-1H-pyrazol-4-yl)-6-(1-(2,2,2-trifluoroethyl)-1H-pyrazol-4-yl)-2-picolinamide]"
0.97,52,"CC(C)(O)C(=O)N1CCC(N2CC(n3cc(NC(=O)c4cccc(-c5cnn(CC(F)(F)F)c5)n4)c(C(F)F)n3)C2)CC1 [Example 32, N-(3-(difluoromethyl)-1-(1-(1-(2-hydroxy-2-methylpropionyl)piperidin-4-yl)azetidin-3-yl)-1H-pyrazol-4-yl)-6-(1-(2,2,2-trifluoroethyl)-1H-pyrazol-4-yl)-2-picolinamide]"
1,46,"C[C@H](O)C(=O)N1CCC(N2CC(n3cc(NC(=O)c4cccc(-c5cnn(CC(F)F)c5)n4)c(C(F)F)n3)C2)CC1 [Example 34, (S)-6-(1-(2,2-difluoroethyl)-1H-pyrazol-4-yl)-N-(3-(difluoromethyl)-1-(1-(1-(2-hydroxypropionyl)piperidin-4-yl)azetidin-3-yl)-1H-pyrazol-4-yl)-2-picolinamide]"
1.3,48,"C[C@@H](O)C(=O)N1CCC(N2CC(n3cc(NC(=O)c4cccc(-c5cnn(CC(F)F)c5)n4)c(C(F)F)n3)C2)CC1 [Example 35, (R)-6-(1-(2,2-difluoroethyl)-1H-pyrazol-4-yl)-N-(3-(difluoromethyl)-1-(1-(1-(2-hydroxypropionyl)piperidin-4-yl)azetidin-3-yl)-1H-pyrazol-4-yl)-2-picolinamide]"
0.96,50,"CC(C)(O)C(=O)N1CCC(N2CC(n3cc(NC(=O)c4cccc(-c5cnn(CC(F)F)c5)n4)c(C(F)F)n3)C2)CC1 [Example 36, 6-(1-(2,2-Difluoroethyl)-1H-pyrazol-4-yl)-N-(3-(difluoromethyl)-1-(1-(1-(2-hydroxy-2-methylpropionyl)piperidin-4-yl)azetidin-3-yl)-1H-pyrazol-4-yl)-2-picolinamide]"
1.5,,"CN(C)C(=O)N1CCC(N2CC(n3cc(NC(=O)c4cccc(-c5cnn(CC(F)F)c5)n4)c(C(F)F)n3)C2)CC1 [Example 38, 6-(1-(2,2-Difluoroethyl)-1H-pyrazol-4-yl)-N-(3-(difluoromethyl)-1-(1-(1-(dimethylcarbamoyl)piperidin-4-yl)azetidin-3-yl)-1H-pyrazol-4-yl)-2-picolinamide]"
0.69,,"C[C@H](O)C(=O)N1CCC(N2CC(n3cc(NC(=O)c4cccc(-c5cc[nH]n5)n4)c(C(F)F)n3)C2)CC1 [Example 39, (S)—N-(3-(difluoromethyl)-1-(1-(1-(2-hydroxypropionyl)piperidin-4-yl)azetidin-3-yl)-1H-pyrazol-4-yl)-6-(1H-pyrazol-3-yl)-2-picolinamide]"
0.59,26,"C[C@@H](O)C(=O)N1CCC(N2CC(n3cc(NC(=O)c4cccc(-c5cc[nH]n5)n4)c(C(F)F)n3)C2)CC1 [Example 40, (R)—N-(3-(difluoromethyl)-1-(1-(1-(2-hydroxypropionyl)piperidin-4-yl)azetidin-3-yl)-1H-pyrazol-4-yl)-6-(1H-pyrazol-3-yl)-2-picolinamide]"
0.43,23,"CC(C)(O)C(=O)N1CCC(N2CC(n3cc(NC(=O)c4cccc(-c5cc[nH]n5)n4)c(C(F)F)n3)C2)CC1 [Example 41, N-(3-(difluoromethyl)-1-(1-(1-(2-hydroxy-2-methylpropionyl)piperidin-4-yl)azetidin-3-yl)-1H-pyrazol-4-yl)-6-(1H-pyrazol-3-yl)-2-picolinamide]"
1.2,,"CS(=O)(=O)N1CCC(N2CC(n3cc(NC(=O)c4cccc(-c5cc[nH]n5)n4)c(C(F)F)n3)C2)CC1 [Example 42, N-(3-(difluoromethyl)-1-(1-(1-(methylsulfonyl)piperidin-4-yl)azetidin-3-yl)-1H-pyrazol-4-yl)-6-(1H-pyrazol-3-yl)-2-picolinamide]"
0.97,42,"CC(C)(C#N)n1cc(-c2cccc(C(=O)Nc3cn(C4CN(C5CCN(C(=O)CO)CC5)C4)nc3C(F)F)n2)cn1 [Example 43, 6-(1-(2-Cyanopropan-2-yl)-1H-pyrazol-4-yl)-N-(3-(difluoromethyl)-1-(1-(1-(2-hydroxyacetyl)piperidin-4-yl)azetidin-3-yl)-1H-pyrazol-4-yl)-2-picolinamide]"
